According to ChEMBL document CHEMBL5370665, “Insight from Linker Investigations: Discovery of a Novel Phenylbenzothiazole Necroptosis Inhibitor Targeting Receptor-Interacting Protein Kinase 1 (RIPK1) from a Phenoxybenzothiazole Compound with Dual RIPK1/3 Targeting Activity” (J Med Chem, 2023):
Active and inactive are the calls of the source. The rule behind the calls is not given here.

Legend:
[1] = Cytotoxicity against human HT-29 cells assessed as reduction in cell viability incubated for 16 to 24 hrs by CellTiter-Glo Luminescent cell viability assay; format: toxicity, cell-based; conditions: time 16-24 hrs
HT-29 [2] = assay: Anti-necroptic activity against human HT-29 cells assessed as inhibition of TSZ (TNFalpha, Smac mimetic and z-VAD-FMK) induced necroptosis pretreated with compound followed by TSZ stimulation for 16 to 18 hrs by CellTiter-Glo Luminescent cell viability assay; format: functional, cell-based
Mus musculus [3] = assay: Anti-inflammatory activity against C57BL/6J mouse model of TNFalpha-induced systemic inflammatory response syndrome (SIRS) assessed as decrease in IL-6 level in spleen at 5 mg/kg,po 2 hrs prior to mTNFalpha and z-VAD-FMK stimulation for 8 hrs by ELISA; format: functional, organism-based; conditions: time 10.0 hrs
Mus musculus [4] = assay: Anti-inflammatory activity against C57BL/6J mouse model of TNFalpha-induced systemic inflammatory response syndrome (SIRS) assessed as decrease in IL-1beta level in spleen at 5 mg/kg,po 2 hrs prior to mTNFalpha and z-VAD-FMK stimulation for 8 hrs by ELISA; format: functional, organism-based; conditions: time 10.0 hrs
Mus musculus [5] = assay: Anti-inflammatory activity against C57BL/6J mouse model of TNFalpha-induced systemic inflammatory response syndrome (SIRS) assessed as decrease in IL-1beta level in liver at 5 mg/kg,po 2 hrs prior to mTNFalpha and z-VAD-FMK stimulation for 8 hrs by ELISA; format: functional, organism-based; conditions: time 10.0 hrs
Mus musculus [6] = assay: Anti-inflammatory activity against C57BL/6J mouse model of TNFalpha-induced systemic inflammatory response syndrome (SIRS) assessed as decrease in IL-1beta level in kidney at 5 mg/kg,po 2 hrs prior to mTNFalpha and z-VAD-FMK stimulation for 8 hrs by ELISA; format: functional, organism-based; conditions: time 10.0 hrs
Mus musculus [7] = assay: Anti-inflammatory activity against C57BL/6J mouse model of TNFalpha-induced systemic inflammatory response syndrome (SIRS) assessed as decrease in IL-6 level in lung at 5 mg/kg,po 2 hrs prior to mTNFalpha and z-VAD-FMK stimulation for 8 hrs by ELISA; format: functional, organism-based; conditions: time 10.0 hrs
Mus musculus [8] = assay: Anti-inflammatory activity against C57BL/6J mouse model of TNFalpha-induced systemic inflammatory response syndrome (SIRS) assessed as decrease in IL-6 level in intestine at 5 mg/kg,po 2 hrs prior to mTNFalpha and z-VAD-FMK stimulation for 8 hrs by ELISA; format: functional, organism-based; conditions: time 10.0 hrs
Mus musculus [9] = assay: Anti-inflammatory activity against C57BL/6J mouse model of TNFalpha-induced systemic inflammatory response syndrome (SIRS) assessed as increase in survival rate at 5 mg/kg,po 2 hrs prior to mTNFalpha and z-VAD-FMK stimulation and measured upto 24 hrs; format: functional; conditions: time 26 hrs
Mus musculus [10] = assay: Anti-inflammatory activity against C57BL/6J mouse model of TNFalpha-induced systemic inflammatory response syndrome (SIRS) assessed as decrease in IL-6 level in heart at 5 mg/kg,po 2 hrs prior to mTNFalpha and z-VAD-FMK stimulation for 8 hrs by ELISA; format: functional, organism-based; conditions: time 10.0 hrs
Mus musculus [11] = assay: Anti-inflammatory activity against C57BL/6J mouse model of TNFalpha-induced systemic inflammatory response syndrome (SIRS) assessed as decrease in IL-6 level in kidney at 5 mg/kg,po 2 hrs prior to mTNFalpha and z-VAD-FMK stimulation for 8 hrs by ELISA; format: functional, organism-based; conditions: time 10.0 hrs
Mus musculus [12] = assay: Anti-inflammatory activity against C57BL/6J mouse model of TNFalpha-induced systemic inflammatory response syndrome (SIRS) assessed as decrease in IL-1beta level in heart at 5 mg/kg,po 2 hrs prior to mTNFalpha and z-VAD-FMK stimulation for 8 hrs by ELISA; format: functional, organism-based; conditions: time 10.0 hrs
HT-29 [13] = assay: Anti-apoptotic activity against human HT-29 cells assessed as inhibition of TC (human TNFalpha, cycloheximide) induced apoptosis upto 20 uM pretreated with compound followed by TC stimulation for 36 hrs by CellTiter-Glo Luminescent cell viability assay; format: functional, cell-based
Mus musculus [14] = assay: Anti-inflammatory activity against C57BL/6J mouse model of TNFalpha-induced systemic inflammatory response syndrome (SIRS) assessed as decrease in IL-1beta level in intestine at 5 mg/kg,po 2 hrs prior to mTNFalpha and z-VAD-FMK stimulation for 8 hrs by ELISA; format: functional, organism-based; conditions: time 10.0 hrs
Mus musculus [15] = assay: Anti-inflammatory activity against C57BL/6J mouse model of TNFalpha-induced systemic inflammatory response syndrome (SIRS) assessed as decrease in IL-1beta level in lung at 5 mg/kg,po 2 hrs prior to mTNFalpha and z-VAD-FMK stimulation for 8 hrs by ELISA; format: functional, organism-based; conditions: time 10.0 hrs
Mus musculus [16] = assay: Anti-inflammatory activity against C57BL/6J mouse model of TNFalpha-induced systemic inflammatory response syndrome (SIRS) assessed as decrease in IL-1beta level in brain at 5 mg/kg,po 2 hrs prior to mTNFalpha and z-VAD-FMK stimulation for 8 hrs by ELISA; format: functional, organism-based; conditions: time 10.0 hrs
Mus musculus [17] = assay: Anti-inflammatory activity against C57BL/6J mouse model of TNFalpha-induced systemic inflammatory response syndrome (SIRS) assessed as increase in body temperature at 5 mg/kg,po 2 hrs prior to mTNFalpha and z-VAD-FMK stimulation and measured upto 18 hrs by electric thermometer analysis; format: functional, organism-based; conditions: time 20.0 hrs
Mus musculus [18] = assay: Anti-inflammatory activity against C57BL/6J mouse model of TNFalpha-induced systemic inflammatory response syndrome (SIRS) assessed as decrease in IL-6 level in brain at 5 mg/kg,po 2 hrs prior to mTNFalpha and z-VAD-FMK stimulation for 8 hrs by ELISA; format: functional, organism-based; conditions: time 10.0 hrs
Mus musculus [19] = assay: Anti-inflammatory activity against C57BL/6J mouse model of TNFalpha-induced systemic inflammatory response syndrome (SIRS) assessed as decrease in IL-6 level in liver at 5 mg/kg,po 2 hrs prior to mTNFalpha and z-VAD-FMK stimulation for 8 hrs by ELISA; format: functional, organism-based; conditions: time 10.0 hrs
[20] = target: T1, Receptor-interacting serine/threonine-protein kinase 1 (Homo sapiens, UniProt Q13546); assay: Binding affinity to recombinant RIPK1 (unknown origin) assessed as dissociation constant incubated for 1 hr by KINOMEscanTM assay
T1 sequence (Q13546 whole entry): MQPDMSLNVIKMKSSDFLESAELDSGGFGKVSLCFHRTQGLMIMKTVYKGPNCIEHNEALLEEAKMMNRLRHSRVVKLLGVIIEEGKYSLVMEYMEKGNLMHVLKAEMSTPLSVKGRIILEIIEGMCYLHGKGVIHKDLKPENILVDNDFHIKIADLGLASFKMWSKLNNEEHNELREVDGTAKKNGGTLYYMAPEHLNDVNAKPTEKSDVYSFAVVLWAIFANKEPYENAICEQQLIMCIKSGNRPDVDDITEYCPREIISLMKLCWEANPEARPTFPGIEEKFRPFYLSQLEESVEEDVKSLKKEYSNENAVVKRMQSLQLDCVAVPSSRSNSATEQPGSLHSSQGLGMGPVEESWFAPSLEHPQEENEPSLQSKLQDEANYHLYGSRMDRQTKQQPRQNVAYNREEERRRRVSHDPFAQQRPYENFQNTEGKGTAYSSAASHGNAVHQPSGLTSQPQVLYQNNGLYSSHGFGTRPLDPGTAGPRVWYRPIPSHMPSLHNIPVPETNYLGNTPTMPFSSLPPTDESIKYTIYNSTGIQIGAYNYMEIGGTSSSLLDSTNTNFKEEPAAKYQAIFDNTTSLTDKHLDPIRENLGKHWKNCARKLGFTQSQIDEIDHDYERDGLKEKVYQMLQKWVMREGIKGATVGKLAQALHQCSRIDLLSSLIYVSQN

[21] = target: Receptor-interacting serine/threonine-protein kinase 3 (Homo sapiens, UniProt Q9Y572); assay: Binding affinity to recombinant RIPK3 (unknown origin) assessed as dissociation constant incubated for 1 hr by KINOMEscanTM assay
HT-29 [22] = assay: Anti-necroptic activity in TSZ (TNFalpha, Smac mimetic and z-VAD-FMK) induced necroptosis in human HT-29 cells assessed as increase in cell viability preincubated for 30 mins pretreated followed by TSZ stimulation and measured after 16 hrs by MTT assay; format: functional, cell-based

Receptor-interacting serine/threonine-protein kinase 3, sequence (Q9Y572 whole entry): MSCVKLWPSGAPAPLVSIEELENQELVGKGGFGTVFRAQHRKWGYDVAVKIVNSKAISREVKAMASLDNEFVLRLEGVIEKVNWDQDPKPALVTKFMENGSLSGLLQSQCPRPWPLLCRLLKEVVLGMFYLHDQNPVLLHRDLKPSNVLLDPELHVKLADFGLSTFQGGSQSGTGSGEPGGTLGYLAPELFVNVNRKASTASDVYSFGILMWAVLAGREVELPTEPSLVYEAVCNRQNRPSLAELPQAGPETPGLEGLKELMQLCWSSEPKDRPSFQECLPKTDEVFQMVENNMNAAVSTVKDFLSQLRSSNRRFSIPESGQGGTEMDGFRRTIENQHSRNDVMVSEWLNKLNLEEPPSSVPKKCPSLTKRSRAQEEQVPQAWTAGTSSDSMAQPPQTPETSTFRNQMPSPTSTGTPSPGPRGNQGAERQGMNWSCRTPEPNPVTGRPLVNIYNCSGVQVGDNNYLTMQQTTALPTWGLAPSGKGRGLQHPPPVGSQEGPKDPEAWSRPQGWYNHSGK

O=C(Cc1cccc(OC(F)(F)F)c1)Nc1cc(Sc2ccc3nc(NC(=O)C4CC4)sc3c2)ccc1F
CC50 [1]: > 10 µM | EC50 (HT-29 [2]): 1.56 µM

O=C(Cc1cccc(OC(F)(F)F)c1)Nc1cc(Nc2ccc3nc(NC(=O)C4CC4)sc3c2)ccc1F
CC50 [1]: > 10 µM | EC50 (HT-29 [2]): 1.24 µM

O=C(Cc1cccc(OC(F)(F)F)c1)Nc1cc(NC(=O)c2ccc3nc(NC(=O)C4CC4)sc3c2)ccc1F
CC50 [1]: > 10 µM | EC50 (HT-29 [2]): 3.13 µM

O=C(Cc1cccc(OC(F)(F)F)c1)Nc1c(F)cccc1-c1ccc2nc(NC(=O)C3CC3)sc2c1
CC50 [1]: > 10 µM | EC50 (HT-29 [2]): > 20 µM

O=C(Cc1cccc(OC(F)(F)F)c1)Nc1cc(Oc2ccc3nc(NC(=O)C4CC4)sc3c2)ccc1F
Activity (Mus musculus [3]): inactive | Activity (Mus musculus [4]): inactive | Activity (Mus musculus [5]): inactive | Activity (Mus musculus [6]): inactive | Activity (Mus musculus [7]): inactive | Activity (Mus musculus [8]): inactive | survival at 5 mg/kg (Mus musculus [9]): 40% | Activity (Mus musculus [10]): inactive | Activity (Mus musculus [11]): inactive | Activity (Mus musculus [12]): inactive | Activity (HT-29 [13]): Active | Activity (Mus musculus [14]): inactive | Activity (Mus musculus [15]): inactive | Activity (Mus musculus [16]): inactive | Activity (Mus musculus [17]): inactive | Activity (Mus musculus [18]): inactive | Activity (Mus musculus [19]): inactive

O=C(Cc1cccc(OC(F)(F)F)c1)Nc1cc(-c2cccc3nc(NC(=O)C4CC4)sc23)ccc1F
CC50 [1]: > 10 µM | EC50 (HT-29 [2]): > 20 µM

O=C(Cc1cccc(OC(F)(F)F)c1)Nc1cccc(-c2ccc3nc(NC(=O)C4CC4)sc3c2)c1F
Kd [20]: 0.14 µM | CC50 [1]: > 10 µM | EC50 (HT-29 [2]): 0.34 µM | Kd [21]: > 5 µM

O=C(Cc1cccc(OC(F)(F)F)c1)Nc1cc(-c2ccc3sc(NC(=O)C4CC4)nc3c2)ccc1F
CC50 [1]: > 10 µM | EC50 (HT-29 [2]): > 20 µM

O=C(Cc1cccc(OC(F)(F)F)c1)Nc1cc(-c2cccc3sc(NC(=O)C4CC4)nc23)ccc1F
CC50 [1]: > 10 µM | EC50 (HT-29 [2]): > 20 µM

O=C(Cc1cccc(OC(F)(F)F)c1)Nc1cc(C#Cc2ccc3nc(NC(=O)C4CC4)sc3c2)ccc1F
CC50 [1]: > 10 µM | EC50 (HT-29 [2]): 0.2 µM

O=C(Cc1cccc(OC(F)(F)F)c1)Nc1cc(S(=O)(=O)c2ccc3nc(NC(=O)C4CC4)sc3c2)ccc1F
CC50 [1]: > 10 µM | EC50 (HT-29 [2]): > 20 µM

CN(c1ccc(F)c(NC(=O)Cc2cccc(OC(F)(F)F)c2)c1)c1ccc2nc(NC(=O)C3CC3)sc2c1
CC50 [1]: > 10 µM | EC50 (HT-29 [2]): 0.75 µM

O=C(Cc1cccc(OC(F)(F)F)c1)Nc1cc(C(=O)Nc2ccc3nc(NC(=O)C4CC4)sc3c2)ccc1F
CC50 [1]: > 10 µM | EC50 (HT-29 [2]): 1.26 µM

O=C(Cc1cccc(OC(F)(F)F)c1)Nc1cc(Cc2ccc3nc(NC(=O)C4CC4)sc3c2)ccc1F
CC50 [1]: > 10 µM | EC50 (HT-29 [2]): 0.31 µM

O=C(Cc1cccc(OC(F)(F)F)c1)Nc1cc(C(=O)c2ccc3nc(NC(=O)C4CC4)sc3c2)ccc1F
CC50 [1]: > 10 µM | EC50 (HT-29 [2]): 2.04 µM

O=C(Cc1cccc(OC(F)(F)F)c1)Nc1cc(C(O)c2ccc3nc(NC(=O)C4CC4)sc3c2)ccc1F (stereo not given)
CC50 [1]: > 10 µM | EC50 (HT-29 [2]): 0.71 µM

O=C(Nc1cccc(C(F)(F)F)c1)Nc1cc(Oc2ccc3nc(NC(=O)C4CC4)sc3c2)ccc1F
Activity (HT-29 [13]): Active

O=C(Cc1cccc(C(F)(F)F)c1)Nc1cc(Oc2cc3sc(NC(=O)C4CC4)nc3cc2F)ccc1F
EC50 (HT-29 [22]): 0.008 µM

O=C(Cc1cccc(OC(F)(F)F)c1)Nc1cc(COc2ccc3nc(NC(=O)C4CC4)sc3c2)ccc1F
CC50 [1]: > 10 µM | EC50 (HT-29 [2]): 0.9 µM

O=C(Cc1cccc(OC(F)(F)F)c1)Nc1ccc(-c2ccc3nc(NC(=O)C4CC4)sc3c2)cc1F
CC50 [1]: > 10 µM | EC50 (HT-29 [2]): > 20 µM
